Experiments:
Bcl-2 = Bcl-2 inhibition assay in MCF-7 cells; type: cell-based, human
Description: (§1) The current study supplied compounds 6i and 10e to breast (MCF-7) cancer cell lines at their respective IC50 values. This led to a notable elevation of pro-apoptotic Bax expression, with a fold increase of 34 for compound 6i and 36 for compound 10e.
(§2) Compounds 6i and 10e were assessed for their ability to activate caspase-3, caspase-8, and Bax, as well as to downregulate the anti-apoptotic protein Bcl2 in the MCF-7 breast cancer cell line ([Abdelbaset et al., 2019]). Supplementary Appendix A provides more details.
Mix all the reagents thoroughly without foaming before use. Wash the microwells twice with approximately 300 μL Wash Buffer per well with thorough aspiration of microwell contents between washes. Take caution not to scratch the surface of the microwells. After the last wash, empty the wells and tap microwell strips on an absorbent pad or paper towel to remove excess Wash Buffer. Use the microwell strips immediately after washing or place upside down on a wet absorbent paper for not longer than 15 minutes. […] Add 100 μL of Sample Diluent in duplicate to all standard wells and to the blank wells. Prepare standard (1:2 dilution) in duplicate ranging from 32 ng/mL to 0.5 ng/mL. Add 100 μL of Sample Diluent, in duplicate, to the blank wells. Add 80 μL of Sample Diluent, in duplicate, to the sample wells. Add 20 μL of each Sample, in duplicate, to the designated wells. Add 50 μL of diluted biotin-conjugate to all wells, including the blank wells. Cover with a plate cover and incubate at room temperature, on a microplate shaker at 100 rpm if available, for 2 hours. Remove plate cover and empty the wells. Wash microwell strips 3 times as described in step 2. Add 100 μL of diluted Streptavidin-HRP to all wells, including the blank wells. Cover with a plate cover and incubate at room temperature, on a microplate shaker at 100 rpm if available, for 1 hour. Remove the plate cover and empty the wells. Wash microwell strips 3 times as described in step 2. Proceed to the next step. Pipette 100 μl of mixed TMB Substrate Solution to all wells, including the blanks. Incubate the microwell strips at room temperature (18° to 25°C) for about 15 minutes, if available on a rotator set at 100 rpm. Avoid direct exposure to intense light. The point, at which the substrate reaction is stopped, is often determined by the ELISA reader. Many ELISA readers record absorbance only up to 2.0 O.D. Therefore, the color development within individual microwells must be watched by the person running the assay and the substrate reaction stopped before positive wells are no longer properly detectable. Stop the enzyme reaction by quickly pipetting 100 μL of Stop Solution into each well, including the blank wells. It is important that the Stop Solution is spread quickly and uniformly throughout the microwells to completely inactivate the enzyme. Results must be read immediately after the Stop Solution is added or within one hour if the microwell strips are stored at 2 - 8°C in the dark. Read the absorbance of each microwell on a spectrophotometer using 450 nm as the primary wavelength.

caspase-8 = test: Caspase-8 activation assay in MCF-7 cells; type: cell-based, human
Description: (§3) Cells experience apoptosis in reaction to specific signaling cues, resulting in significant modifications. […] They decompose vital cellular components, including nuclear proteins, such as DNA repair enzymes and structural proteins within the cytoskeleton, essential for optimal cellular function.
(§4) Supplementary Appendix A provides more details.
The absorbance of each microwell was read on a spectrophotometer at 450 nm. A standard curve is prepared from 7human Caspase-8 standard dilutions and human Caspase-8 concentration determined.

Bax = Bax activation assay in MCF-7 cells; type: cell-based, human
Description: as §1, §2
Bring all reagents, except the human Bax-α Standard, to room temperature for at least 30 minutes prior to opening. The human Bax-α Standard solution should not be left at room temperature for more than 10 minutes. All standards, controls and samples should be run in duplicate. Refer to the Assay Layout Sheet to determine the number of wells to be used and put any remaining wells with the desiccant back into the pouch and seal the ziploc. Store unused wells at 4 °C. Pipet 100 μL of Assay Buffer into the S0 (0 pg/mL standard) wells. Pipet 100 μL of Standards #1 through #6 into the appropriate wells. Pipet 100 μL of the Samples into the appropriate wells. Tap the plate gently to mix the contents. Seal the plate and incubate at room temperature on a plate shaker for 1 hour at ~500 rpm. Empty the contents of the wells and wash by adding 400 μL of wash solution to every well. Repeat the wash 4 more times for a total of 5 washes. After the final wash, empty or aspirate the wells and firmly tap the plate on a lint free paper towel to remove any remaining wash buffer. Pipet 100 μL of yellow Antibody into each well, except the Blank. Seal the plate and incubate at room temperature on a plate shaker for 1 hour at ~500 rpm. Empty the contents of the wells and wash by adding 400 μL of wash solution to every well. Repeat the wash 4 more times for a total of 5 washes. After the final wash, empty or aspirate the wells and firmly tap the plate on a lint free paper towel to remove any remaining wash buffer. Add 100 μL of blue Conjugate to each well, except the Blank. Seal the plate and incubate at room temperature on a plate shaker for 30 minutes at ~500 rpm. Empty the contents of the wells and wash by adding 400 μL of wash solution to every well. Repeat the wash 4 more times for a total of 5 washes. After the final wash, empty or aspirate the wells and firmly tap the plate on a lint free paper towel to remove any remaining wash buffer. Pipet 100 μL of Substrate Solution into each well. Incubate for 30 minutes at room temperature on a plate shaker at ~500 rpm. Pipet 100 μL Stop Solution to each well. Blank the plate reader against the Blank wells, read the optical density at 450 nm. Calculate the average net Optical Density (OD) bound for each standard and sample by subtracting the average Blank OD from the average OD for each standard and sample. Using linear graph paper, plot the Average Net OD for each standard versus Bax concentration in each standard. Approximate a straight line through the points. The concentration of Bax in the unknowns can be determined by interpolation.

caspase-3 = test: Caspase-3 activation assay in MCF-7 cells; type: cell-based, human; settings: vs untreated control
Text: as §3, §4
Allow all reagents to reach room temperature before use. Gently mix all liquid reagents prior to use. Determine the number of 8-well strips needed for the assay. Insert these in the frame(s) for current use. Add 100 μl of the Standard Diluent Buffer to the zero standard wells. Well(s) reserved for chromogen blank should be left empty. Add 100 μl of standards and controls or diluted samples to the appropriate microtiter wells. The sample dilution chosen should be optimized for each experimental system. Tap gently on the side of plate to mix. Cover wells with plate cover and incubate for 2 hours at room temperature. Thoroughly aspirate or decant solution from wells and discard the liquid, Wash wells 4 times. […] Tap gently on the side of the plate to mix. Cover plate with plate cover and incubate for 1 hour at room temperature. Thoroughly aspirate or decant solution from wells and discard the liquid, Wash wells 4 times. Add 100 μl Anti-Rabbit IgG HRP Working Solution to each well except the chromogen blank(s). Prepare the working dilution as described in Preparing IgG HRP. Cover wells with the plate cover and incubate for 30 minutes at room temperature. Thoroughly aspirate or decant solution from wells and discard the liquid. Wash wells 4 times. Add 100 μl of Stabilized Chromogen to each well. The liquid in the wells will begin to turn blue. Incubate for 30 minutes at room temperature and in the dark. The incubation time for chromogen substrate is often determined by the microtiter plate reader used. […] The O.D. values should be monitored, and the substrate reaction stopped before the O.D. of the positive wells exceeds the limits of the instrument. The O.D. values at 450 nm can only be read after the Stop Solution has been added to each well. […] Add 100 μl of Stop Solution to each well. Tap side of plate gently to mix. The solution in the wells should change from blue to yellow. Read the absorbance of each well at 450 nm having blanked the plate reader against a chromogen blank composed of 100 μl each of Stabilized Chromogen and Stop Solution. Read the plate within 2 hours after adding the Stop Solution. Use a curve fitting software to generate the standard curve. […] Read the concentrations for unknown samples and controls from the standard curve. Multiply value(s) obtained for sample(s) by the appropriate dilution factor to correct for the dilution in step 3.

[1] = system: leukemia subpanel of 60 human carcinoma cell lines; parameters: method as in Youssif et al., 2024; settings: NCI five-dose, ref Youssif et al., 2024; cited from earlier work
EGFR = EGFR (Homo sapiens, UniProt P00533); parameters: method as in Ihmaid et al., 2021; settings: ref Ihmaid et al., 2021; read-out: EGFR inhibition IC50; cited from earlier work
EGFR, sequence (P00533 669-1210): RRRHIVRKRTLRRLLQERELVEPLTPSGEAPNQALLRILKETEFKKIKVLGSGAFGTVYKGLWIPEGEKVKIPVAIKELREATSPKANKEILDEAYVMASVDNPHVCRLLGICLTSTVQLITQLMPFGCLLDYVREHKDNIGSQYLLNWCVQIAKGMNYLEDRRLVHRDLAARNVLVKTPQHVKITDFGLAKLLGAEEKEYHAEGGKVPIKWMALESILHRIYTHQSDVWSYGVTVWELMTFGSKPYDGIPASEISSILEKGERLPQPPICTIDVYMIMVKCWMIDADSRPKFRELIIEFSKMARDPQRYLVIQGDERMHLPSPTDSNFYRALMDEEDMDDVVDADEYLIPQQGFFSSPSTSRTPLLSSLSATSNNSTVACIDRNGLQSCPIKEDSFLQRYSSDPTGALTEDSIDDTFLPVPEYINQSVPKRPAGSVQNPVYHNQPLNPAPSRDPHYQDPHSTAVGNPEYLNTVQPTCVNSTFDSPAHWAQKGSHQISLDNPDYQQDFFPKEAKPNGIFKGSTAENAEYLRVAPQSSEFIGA

CN[C@@H]1C[C@H]2O[C@@](C)([C@@H]1OC)n1c3ccccc3c3c4c(c5c6ccccc6n2c5c31)C(=O)NC4 [Staurosporine, reference compound]
Bcl-2 Conc (Bcl-2; compound at its IC50): 1.20 ng/mL | Bcl-2 Fold reduction (Bcl-2; vs untreated control): 4 | Caspase-8 Conc (caspase-8; compound at its IC50 concentration): 1.50 ± 0.10 ng/mL | Caspase-8 Fold change (caspase-8; vs untreated control): 17 | Bax Conc (Bax; compound at its IC50): 288 ± 2 pg/mL | Bax Fold change (Bax; vs untreated control): 32 | Caspase-3 Fold change (caspase-3): 7

O=C(N/N=C/c1ccc([N+](=O)[O-])cc1)c1ccc2[nH]c(-c3ccc(Cl)cc3)nc2c1 [I]
Selectivity ratio towards the leukemia subpanel at the GI50 level [1]: 5.96

Cc1ccc(NC(=O)Cn2cc(CN3C(=O)c4cc(Cl)c(Cl)cc4C3=O)nn2)cc1F [III]
IC50 (EGFR): 79 nM
